Results published in patent publication US10058550B2, “Methods of treating heart failure” (priority 2015, dated 2018).

Molecular target: human APJ receptor (Homo sapiens (Human), UniProt P35414)
Test: biochemical
Assay type: biochemical
Conditions: read-out: Activity hAPJ SPA EC50 IP
Description: The human APJ receptor was cloned by polymerase chain reaction and the gene encoding the receptor was subcloned in pFLAG-CMV™-3 expression vector (Sigma, Saint Louis, Mo. USA) in-house at Amgen. A GTPγS binding assay was performed on membranes prepared from CHO cells stably expressing human APJ receptor. The optimum experimental conditions for the concentrations of GDP, MgCl2, and NaCl in the assay buffer were initially determined. The assay was performed in assay buffer [20 mM HEPES, pH 7.5, 5 mM MgCl2, and 0.1% (w/v) BSA with 200 mM NaCl, 3 μM GDP] and membranes expressing human APJ receptor/well along with WGA PS beads. The reaction was initiated by addition of 0.2 nM [^35S]GTPγS (Perkin Elmer Life and Analytical Sciences, Waltham USA) in the absence or presence of various ligands and incubated at RT for 90 min. […] All the results presented are means of several independent experiments and analyzed by non-linear regression methods using commercially available program Prism (GraphPad, San Diego, Calif.) to obtain EC50 detailed in Table 58.

Sequence of human APJ receptor (P35414 whole entry): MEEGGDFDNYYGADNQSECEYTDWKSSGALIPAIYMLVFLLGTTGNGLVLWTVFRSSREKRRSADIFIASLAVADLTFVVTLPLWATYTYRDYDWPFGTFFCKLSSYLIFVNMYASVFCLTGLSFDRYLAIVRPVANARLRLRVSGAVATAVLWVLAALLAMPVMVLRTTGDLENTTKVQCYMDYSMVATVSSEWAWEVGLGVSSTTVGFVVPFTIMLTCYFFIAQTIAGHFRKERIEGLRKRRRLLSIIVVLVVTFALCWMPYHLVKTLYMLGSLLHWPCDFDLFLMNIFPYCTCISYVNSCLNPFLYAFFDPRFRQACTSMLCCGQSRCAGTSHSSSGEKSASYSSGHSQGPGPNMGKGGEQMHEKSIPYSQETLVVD

Structure (SMILES) | EC50 [nM]
COc1cccc(-c2nnc(NS(=O)(=O)[C@H](C)C(=O)N3CCCC3)n2-c2c(OC)cccc2OC)n1 (mixture of isomers) [Example 83.0, (2R)-N-(4-(2,6-dimethoxyphenyl)-5-(6-methoxy-2-pyridinyl)-4H-1,2,4-triazol-3-yl)-1-oxo-1-(1-pyrrolidinyl)-2-propanesulfonamide and (2S)-N-(4-(2,6-dimethoxyphenyl)-5-(6-methoxy-2-pyridinyl)-4H-1,2,4-triazol-3-yl)-1-oxo-1-(1-pyrrolidinyl)-2-propanesulfonamide] | 48
COc1cccc(OC)c1-n1c(NS(=O)(=O)[C@@H](C)[C@H](C)c2ncc(F)cn2)nnc1-c1cccnc1 (mixture of isomers) [Example 182.0, (2R,3S)-N-(4-(2,6-dimethoxyphenyl)-5-(3-pyridinyl)-4H-1,2,4-triazol-3-yl)-3-(5-fluoro-2-pyrimidinyl)-2-butanesulfonamide and (2S,3R)-N-(4-(2,6-dimethoxyphenyl)-5-(3-pyridinyl)-4H-1,2,4-triazol-3-yl)-3-(5-fluoro-2-pyrimidinyl)-2-butanesulfonamide] | 1.1
COc1cccc(OC)c1-n1c(NS(=O)(=O)[C@@H](C)Cc2ncc(F)cn2)nnc1-c1ccccn1 (mixture of isomers) [Example 202.0, (2R)-N-(4-(2,6-dimethoxyphenyl)-5-(2-pyridinyl)-4H-1,2,4-triazol-3-yl)-1-(5-fluoro-2-pyrimidinyl)-2-propanesulfonamide and (2S)-N-(4-(2,6-dimethoxyphenyl)-5-(2-pyridinyl)-4H-1,2,4-triazol-3-yl)-1-(5-fluoro-2-pyrimidinyl)-2-propanesulfonamide] | 15.4
COc1cccc(-c2nnc(NS(=O)(=O)C[C@H](O)c3ccc(Cl)cc3)n2-c2c(OC)cccc2OC)n1 (mixture of isomers) [Example 264.0, (R)-2-(4-chlorophenyl)-N-(4-(2,6-dimethoxyphenyl)-5-(6-methoxypyridin-2-yl)-4H-1,2,4-triazol-3-yl)-2-hydroxyethanesulfonamide and (S)-2-(4-chlorophenyl)-N-(4-(2,6-dimethoxyphenyl)-5-(6-methoxypyridin-2-yl)-4H-1,2,4-triazol-3-yl)-2-hydroxyethanesulfonamide] | 0.34
COc1cccc(OC)c1-n1c(NS(=O)(=O)C[C@@H](O)C2CCC2)nnc1-c1cncc(C)c1 (mixture of isomers) [Example 382.0, (R)-2-cyclobutyl-N-(4-(2,6-dimethoxyphenyl)-5-(5-methylpyridin-3-yl)-4H-1,2,4-triazol-3-yl)-2-hydroxyethanesulfonamide and (S)-2-cyclobutyl-N-(4-(2,6-dimethoxyphenyl)-5-(5-methylpyridin-3-yl)-4H-1,2,4-triazol-3-yl)-2-hydroxyethanesulfonamide] | 73
COc1cccc(-c2nnc(NS(=O)(=O)[C@H](C)[C@@H](O)C(C)(C)C)n2-c2c(OC)cccc2OC)n1 (mixture of isomers) [Example 433.0] | 42
COc1cccc(OC)c1-n1c(NS(=O)(=O)[C@@H](C)[C@H](C)c2ncc(F)cn2)nnc1-c1cccc(C)n1 (mixture of isomers) [Example 452.0, (2S,3R)—N-(4-(2,6-dimethoxyphenyl)-5-(6-methyl-2-pyridinyl)-4H-1,2,4-triazol-3-yl)-3-(5-fluoro-2-pyrimidinyl)-2-butanesulfonamide and (2R,3S)—N-(4-(2,6-dimethoxyphenyl)-5-(6-methyl-2-pyridinyl)-4H-1,2,4-triazol-3-yl)-3-(5-fluoro-2-pyrimidinyl)-2-butanesulfonamide] | 1
COc1cccc(OC)c1-n1c(NS(=O)(=O)[C@@H](C)Cc2ncc(F)cn2)nnc1-c1cccc(C)n1 (mixture of isomers) [Example 618.0, (S)-N-(4-(2,6-dimethoxyphenyl)-5-(6-methylpyridin-2-yl)-4H-1,2,4-triazol-3-yl)-1-(5-fluoropyrimidin-2-yl)propane-2-sulfonamide and (R)-N-(4-(2,6-dimethoxyphenyl)-5-(6-methylpyridin-2-yl)-4H-1,2,4-triazol-3-yl)-1-(5-fluoropyrimidin-2-yl)propane-2-sulfonamide] | 5.4
COc1cccc(OC)c1-n1c(NS(=O)(=O)[C@H](C)[C@@H](OC)c2ncnn2C)nnc1-c1cncc(C)c1 (mixture of isomers) [Example 637.0, (1S,2R)-N-(4-(2,6-dimethoxyphenyl)-5-(5-methylpyridin-3-yl)-4H-1,2,4-triazol-3-yl)-1-methoxy-1-(1-methyl-1H-1,2,4-triazol-5-yl)propane-2-sulfonamide and (1R,2S)-N-(4-(2,6-dimethoxyphenyl)-5-(5-methylpyridin-3-yl)-4H-1,2,4-triazol-3-yl)-1-methoxy-1-(1-methyl-1H-1,2,4-triazol-5-yl)propane-2-sulfonamide] | 150
COc1cccc(OC)c1-n1c(NS(=O)(=O)[C@@H](C)[C@H](O)c2ccc(Br)c(C)n2)nnc1-c1cccnc1 (mixture of isomers) [Example 642.0, (1R,2S)-1-(5-bromo-6-methylpyridin-2-yl)-N-(4-(2,6-dimethoxyphenyl)-5-(pyridin-3-yl)-4H-1,2,4-triazol-3-yl)-1-hydroxypropane-2-sulfonamide and (1S,2R)-1-(5-bromo-6-methylpyridin-2-yl)-N-(4-(2,6-dimethoxyphenyl)-5-(pyridin-3-yl)-4H-1,2,4-triazol-3-yl)-1-hydroxypropane-2-sulfonamide] | 0.48
COc1cccc(-c2nnc(NS(=O)(=O)[C@H]3CCCO[C@H]3c3ncc(C)cn3)n2-c2c(OC)cccc2OC)n1 (mixture of isomers) [Example 648.0] | 33
COc1cccc(OC)c1-n1c(NS(=O)(=O)C(C)Cc2ncc(F)cn2)nnc1-c1cncc(Br)c1 (racemic) [Example 146.0, (2R)-N-(5-(5-bromo-3-pyridinyl)-4-(2,6-dimethoxyphenyl)-4H-1,2,4-triazol-3-yl)-1-(5-fluoro-2-pyrimidinyl)-2-propanesulfonamide and (2S)-N-(5-(5-bromo-3-pyridinyl)-4-(2,6-dimethoxyphenyl)-4H-1,2,4-triazol-3-yl)-1-(5-fluoro-2-pyrimidinyl)-2-propanesulfonamide] | 2.1
COc1cccc(OC)c1-n1c(NS(=O)(=O)[C@H](C)[C@@H](C)n2cc(C)cn2)nnc1-c1cncc(C)c1 (racemic) [Example 647.0] | 1.7
COc1cccc(OC)c1-n1c(NS(=O)(=O)[C@H](C)[C@@H](C)c2cnc(C)cn2)nnc1-c1cccnc1 (racemic) [Example 701.0, (2R,3S)-N-(4-(2,6-dimethoxyphenyl)-5-(3-pyridinyl)-4H-1,2,4-triazol-3-yl)-3-(5-methyl-2-pyrazinyl)-2-butanesulfonamide, (2S,3R)-N-(4-(2,6-dimethoxyphenyl)-5-(3-pyridinyl)-4H-1,2,4-triazol-3-yl)-3-(5-methyl-2-pyrazinyl)-2-butanesulfonamide] | 2
COc1cccc(-c2nnc(NS(=O)(=O)[C@@H](C)[C@@H](OC(C)C)c3ncc(C)cn3)n2-c2c(OC)cccc2OC)n1 (single isomer, unassigned) [Example 95.0] | 0.11
CCO[C@@H](c1ncc(C)cn1)[C@@H](C)S(=O)(=O)Nc1nnc(-c2cccnc2)n1-c1c(OC)cccc1OC (single isomer, unassigned) [Example 108.0] | 150
COc1cccc(OC)c1-n1c(NS(=O)(=O)[C@@H](C)Cc2ncc(F)cn2)nnc1-c1cncc(C)c1 (single isomer, unassigned) [Example 208.0] | 1
COc1cccc(OC)c1-n1c(NS(=O)(=O)[C@@H](C)Cc2ncc(F)cn2)nnc1-c1cncc(C)c1 (single isomer, unassigned) [Example 209.0] | 4.9
COc1cccc(OC)c1-n1c(NS(=O)(=O)[C@@H](C)Cc2ncc(F)cn2)nnc1-c1cnccc1C (single isomer, unassigned) [Example 217.0] | 180
COc1cccc(OC)c1-n1c(NS(=O)(=O)[C@@H](C)Cc2ncc(F)cn2)nnc1-c1cnccc1C (single isomer, unassigned) [Example 218.0] | 300
COc1cccc(OC)c1-n1c(NS(=O)(=O)[C@@H](C)Cc2ncc(F)cn2)nnc1-c1cncc(Cl)c1 (single isomer, unassigned) [Example 220.0] | 7.1
COc1cccc(OC)c1-n1c(NS(=O)(=O)[C@@H](C)Cc2ncc(F)cn2)nnc1-c1cncc(Cl)c1 (single isomer, unassigned) [Example 221.0] | 35
COc1cccc(OC)c1-n1c(NS(=O)(=O)[C@@H](C)[C@H](C)c2ncc(F)cn2)nnc1-c1cncc(C)c1 (single isomer, unassigned) [Example 234.0] | 16
COc1cccc(OC)c1-n1c(NS(=O)(=O)[C@@H](C)[C@H](C)c2ncc(F)cn2)nnc1-c1cncc(C)c1 (single isomer, unassigned) [Example 235.0] | 0.28
COc1cccc(OC)c1-n1c(NS(=O)(=O)[C@@H](C)[C@H](C)c2ncc(F)cn2)nnc1-c1cncc(C)c1 (single isomer, unassigned) [Example 236.0] | 100
COc1cccc(OC)c1-n1c(NS(=O)(=O)[C@@H](C)[C@H](C)c2ncc(F)cn2)nnc1-c1cncc(C)c1 (single isomer, unassigned) [Example 237.0] | 14
COc1cccc(OC)c1-n1c(NS(=O)(=O)[C@@H](C)[C@H](O)c2ccc(C#N)cc2)nnc1-c1cncc(C)c1 (single isomer, unassigned) [Example 248.0] | 60
